# Publication PMC5104457, “ATP-Competitive MLKL Binders Have No Functional Impact on Necroptosis” (PLoS ONE, 2016)
# Entries after “also recorded” stand apart in the source; their conditions may differ.
# Columns and labels:
# [1] = system: RIPK3 phosphorylation of MLKL in 293T cells; experiment: MLKL phosphorylation assay (MSD), RIPK3-dependent phospho Ser358; format: cell-based, human; conditions: 293T cells with GFP-MLKL and RIPK3-mCherry, 30 min compound, normalized to DMSO
# Method: The cDNA clones of human MLKL (RC213152) and human RIPK3 (RC209549) were purchased from Origene. To generate GFP-MLKL and RIPK3-mCherry, coding sequences of the corresponding cDNA sequences were PCR amplified and cloned into Biogen’s mammalian expression vector.
# 293T cells grown in 10 cm plates were transfected with GFP-MLKL alone or both GFP-MLKL and RIPK3-mCherry plasmids. After 24 hours, cells were harvested and replated into poly D lysine coated 96W plate with 20,000 cells/ml. Four hours later, cells were treated with MLKL compounds for 30 min and incubated at 37°C. Thirty minutes later, the media was removed and cells were lysed in 150μl of Cell lysis buffer (Cell Signaling, MA) containing both protease and phosphatase inhibitors. The lysates were transferred to 96 well MSD plates (Meso Scale Discovery, MD) that were precoated with anti-mouse MLKL antibody H00197259-M02, 3B2, Novus Biologicals, CO), and incubated overnight at 4°C. After washing the plates three times with 1x MSD wash buffer (50mM TRIS-HCl, 150mM NaCl, 0.02% Tween 20, pH7.5), 100 μl of 0.5μg/ml of rabbit-anti-MLKL phospho Ser358 (Abcam AB187091) was added to each well. The plates were incubated for 2 hours at room temperature. After three washes with MSD wash buffer, 100 μ l of 0.5ug/ml of SULFO-tag labeled anti-rabbit IgG was added to each well and incubated for 1 hour at room temperature. After three washes, 1x Read bufferT (Meso Scale Discovery, MD) was added and the electrochemiluminescence (ECL) was measured with a MSD Sector Imager 600.
# [2] = molecular target: T1, RIPK1 kinase domain (Homo sapiens, UniProt Q13546); experiment: ATP-competitive probe displacement assay, RIPK1; format: binding; conditions: for weaker potency to RIPK1 relative to MLKL: RIPK1 KD versus MLKL KD; for Kd: average of duplicates
# T1 construct: purchased DiscoverX
# T1 sequence (Q13546 17-289 limits assumed): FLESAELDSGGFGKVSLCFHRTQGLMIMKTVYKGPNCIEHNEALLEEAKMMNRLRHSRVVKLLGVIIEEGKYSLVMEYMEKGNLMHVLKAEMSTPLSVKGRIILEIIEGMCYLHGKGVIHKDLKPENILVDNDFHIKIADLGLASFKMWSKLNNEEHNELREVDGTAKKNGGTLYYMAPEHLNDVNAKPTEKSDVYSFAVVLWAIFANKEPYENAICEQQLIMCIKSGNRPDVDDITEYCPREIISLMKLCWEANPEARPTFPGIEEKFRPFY
# Method: (§1) Compound binding constants (KDs) were determined at DiscoverX using their KINOMEscan assay platform. This competition binding assay was previously described in Karaman et al. (2008)[18]. Briefly, full length MLKL was expressed in HEK-293 cells as a fusion with an NFκB DNA binding domain and subsequently tagged with a qPCR detection amplicon via interaction with NFκB. […] Twenty microliters of binding reactions were carried out in 384-well polypropylene plates for 1 hour at room temperature. Beads were subsequently washed and resuspended in elution buffer for 30 minutes at room temperature with shaking. The concentration of MLKL in the eluates was measured by qPCR and compound binding constants were calculated using a standard dose-response curve.
# (§2) A similar approach was used to measure binding affinities for RIPK1 and RIPK3 kinase domains.
# [3] = molecular target: T2, full length MLKL (Homo sapiens, UniProt Q8NB16); experiment: KINOMEscan ATP-competitive probe displacement (competition binding) assay, MLKL; conditions: for Kd: average of duplicates
# T2 construct: purchased DiscoverX (KINOMEscan service); host or cells: HEK-293
# T2 sequence (Q8NB16 1-471): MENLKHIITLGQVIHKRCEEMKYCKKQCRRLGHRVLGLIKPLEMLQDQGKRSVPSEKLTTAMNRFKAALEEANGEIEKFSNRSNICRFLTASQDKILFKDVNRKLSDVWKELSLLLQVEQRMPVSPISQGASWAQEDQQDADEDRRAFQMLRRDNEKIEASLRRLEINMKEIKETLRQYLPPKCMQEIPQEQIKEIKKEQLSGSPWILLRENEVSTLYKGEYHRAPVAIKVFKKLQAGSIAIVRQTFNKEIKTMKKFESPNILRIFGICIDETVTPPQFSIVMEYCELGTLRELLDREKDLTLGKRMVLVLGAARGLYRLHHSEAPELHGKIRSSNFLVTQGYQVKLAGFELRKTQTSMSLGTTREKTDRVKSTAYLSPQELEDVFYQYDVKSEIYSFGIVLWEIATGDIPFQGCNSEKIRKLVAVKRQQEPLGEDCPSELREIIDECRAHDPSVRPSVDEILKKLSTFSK
# Method: as §1, with “This competition binding assay was previously described in Karaman et al. (2008)[18].” left out
# as §2
# [4] = molecular target: T3, pseudokinase MLKL-1 (Homo sapiens, UniProt Q8NB16); experiment: Differential scanning fluorimetry (thermal shift), MLKL pseudokinase domain; format: binding; conditions: 10 μM compound, 1 μM protein, average of triplicates; read-out: MLKL Pseudo-kinase thermal shift at 10 μM
# T3 construct: sub-cloning residues 191 to 471 of the pseudokinase domain of human MLKL cDNA; His6 (thrombin cleavable) (N); made in house; host or cells: Escherichia coli BL21 (DE3)
# T3 sequence (Q8NB16 191-471): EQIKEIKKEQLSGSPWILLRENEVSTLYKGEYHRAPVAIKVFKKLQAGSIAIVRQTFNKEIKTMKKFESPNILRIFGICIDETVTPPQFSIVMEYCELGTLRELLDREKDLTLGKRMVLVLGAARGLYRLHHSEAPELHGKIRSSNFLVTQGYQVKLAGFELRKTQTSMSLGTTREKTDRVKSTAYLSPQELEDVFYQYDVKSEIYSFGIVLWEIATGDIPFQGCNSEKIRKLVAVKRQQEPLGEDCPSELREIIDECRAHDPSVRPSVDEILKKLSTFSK
# From the text: MLKL-1 was constructed by sub-cloning residues 191 to 471 of the pseudokinase domain of human MLKL cDNA into a pET15b vector with a thrombin cleavable N-terminal six histidine fusion tag (His-MLKL-1). MLKL-2 had the same protein boundaries and fusion tag system as MLKL-1 but the dual mutations E366A and K367A were introduced using site directed mutagenesis and was expressed in the same vector (His-MLKL-2).
# (§3) To measure the thermal stabilization of the proteins upon compound binding we employed differential scanning fluorimetry (DSF). The kinase domain of RIPK1 and the N-terminal domain HSP90α were expressed and purified as previously described. The pseudokinase MLKL-1, RIPK1 and Hsp90 were melted at 1μM final concentrations in 25mM HEPES pH 8.0, 250mM NaCl and 2.5mM DTT. Compounds were added to a final concentration of 10 μ M with a final DMSO concentration of 5%. The complexes were incubated on ice for 30 minutes. Protein Thermal Shift dye (Life Technologies) was added to 1X. The fluorescence intensities were measured using a Quantstudio real-time PCR system (Life Technologies) with excitation at 470 nm and emission at 586 nm. The samples, measured in triplicate, were heated from 25 to 85°C with a heating rate of […].
# [5] = system: FADD (-/-) Jurkat cells; experiment: Necroptosis assay: rescue from TNF-α induced cell death; format: cell-based; conditions: FADD deficient Jurkat cells; for IC50: TNF-α 15 ng/ml overnight, average of duplicates, read-out: Necroptosis cell IC50
# Method: Necroptosis assays were performed at Charles River Laboratories (United Kingdom) and at Biogen. […] On the day of the experiment, cells were counted using Nexcelom Bioscience Cell Meter Vision and pelleted by centrifugation. Cell pellets were resuspended in fresh medium at 500,000 cells per mL and transferred to assay-ready compound plates prepared in 384-well white TC plates (Greiner #781080) at 20μl cells per well. Cells and compound were incubated at room temperature for 30 minutes followed by +/- stimulation with 15ng/ml TNF-α (Cell signalling Technologies #8902LF) overnight at 37°C. In the morning, plates were equilibrated to room temperature for 30 minutes and 25μl of CellTiter-Glow (CellTiter-Glo 2.0 Assay, Promega # G9243) diluted 1:4 in PBS was added to each well and allowed to incubate for 10 minutes at room temperature. Luminescence was read on an Envision plate reader (Perkin Elmer).
# TNF-α added to these cells induces necroptosis or cell death. The term “Rescue” refers to the ability of a compound to prevent loss of cell viability in the presence of TNF. Definitions of the presence or absence of compound or TNF stimulation in the wells that were used to calculate degree of rescue or viability is defined in Table 1.
# 100% percent rescue is defined as the value of the “no TNF” wells minus the value of wells treated with “TNF”.
# Percent Rescue is then the ratio of the intensity value of the experimental “well” minus the value of “TNF” treated wells divided by the overall difference between the value of “no TNF” treated wells and the value of “TNF” treated wells.
# %rescue=((well - TNF)/(no TNF - TNF))x100
# [6] = molecular target: T4, kinase domain of RIPK1 (Homo sapiens, UniProt Q13546); experiment: Differential scanning fluorimetry (thermal shift), RIPK1 kinase domain; format: binding; conditions: 10 μM compound, 1 μM protein, average of triplicates
# T4 construct: The kinase domain of RIPK1; made in house
# T4 sequence (Q13546 17-289 limits assumed): T1 sequence (Q13546 17-289 limits assumed)
# Method: as §3
# [7] = system: FADD (-/-) Jurkat cells; experiment: Viability experiment in the absence of TNF; format: cell-based; conditions: FADD deficient Jurkat cells, no TNF, Fig 3F
# Method: Necroptosis assays were performed at Charles River Laboratories (United Kingdom) and at Biogen. […] On the day of the experiment, cells were counted using Nexcelom Bioscience Cell Meter Vision and pelleted by centrifugation. Cell pellets were resuspended in fresh medium at 500,000 cells per mL and transferred to assay-ready compound plates prepared in 384-well white TC plates (Greiner #781080) at 20μl cells per well. Cells and compound were incubated at room temperature for 30 minutes followed by +/- stimulation with 15ng/ml TNF-α (Cell signalling Technologies #8902LF) overnight at 37°C. In the morning, plates were equilibrated to room temperature for 30 minutes and 25μl of CellTiter-Glow (CellTiter-Glo 2.0 Assay, Promega # G9243) diluted 1:4 in PBS was added to each well and allowed to incubate for 10 minutes at room temperature. Luminescence was read on an Envision plate reader (Perkin Elmer). Percent viability values are calculated from separate dose response experiments identical to the percent rescue experiment except that no TNF is added to the cells. This assay is intended to identify compounds that not only don’t rescue, but are toxic themselves. 100% Viability is defined as the intensity value of the “no TNF” wells, cell treated with neither compound nor TNF. […]
# [8] = molecular target: T5, RIPK3 kinase domain (Homo sapiens, UniProt Q9Y572); experiment: ATP-competitive probe displacement assay, RIPK3; format: binding
# T5 construct: purchased DiscoverX
# Method: as §1, §2
# T5 sequence (Q9Y572 21-287 limits assumed): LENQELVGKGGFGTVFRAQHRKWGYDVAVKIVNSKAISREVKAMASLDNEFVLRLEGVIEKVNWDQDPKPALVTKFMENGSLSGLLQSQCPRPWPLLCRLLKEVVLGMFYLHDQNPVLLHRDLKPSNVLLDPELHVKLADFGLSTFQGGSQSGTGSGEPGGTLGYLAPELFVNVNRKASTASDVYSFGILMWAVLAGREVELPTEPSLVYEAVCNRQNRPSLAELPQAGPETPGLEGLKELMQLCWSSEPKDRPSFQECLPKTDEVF
smiles,measurement,setting,value
CC(C)S(=O)(=O)c1ccc2nccc(Nc3ccc4scnc4c3)c2c1 [GSK872],"effect on RIPK3-dependent phosphorylation of MLKL (phospho Ser358, in words)",[1],completely inhibited; also recorded: inhibits phosphorylation of MLKL
CN(c1ccc(N)cc1)c1ccnc(Nc2cccc(S(N)(=O)=O)c2)n1 [cpd 3],weaker potency to RIPK1 relative to MLKL,[2],at least 10 fold
same,Kd,[2],> 10000 nM
same,Kd,[3],880 nM
same,ΔTm at 10 µM,[4],1.57 °C
same,IC50,[5]; Homo sapiens,> 40000 nM
same,ΔTm at 10 µM,[6],0.31 °C
"C[C@@H](Oc1cc(-c2cnn(C3CCNCC3)c2)cnc1N)c1c(Cl)ccc(F)c1Cl [Crizontinib, reference compound]","effect on RIPK3-dependent phosphorylation of MLKL (phospho Ser358, in words)",[1],does not impact its phosphorylation
same,ΔTm at 10 µM,[4],5.63 °C
same,rescue of cells from necroptosis (in words),"[5]; dose-response, Fig 3",does not rescue cells from necroptosis
same,IC50,[5]; Homo sapiens,> 40000 nM
same,ΔTm at 10 µM,[6],0.75 °C
"CN1C(=O)C(Cc2c[nH]c3ccccc23)NC1=S (stereo not shown) [Nec1s, Necrostatin, reference compound]",EC50,"[5]; Homo sapiens, TNF stimulation",500 nM
same,effect on cell viability in the absence of TNF stimulation (in words),[7],does not effect cell viability
"COc1nccnc1NS(=O)(=O)c1ccc(NC(=O)/C=C/c2ccc([N+](=O)[O-])s2)cc1 [NSA, Necrosulfonamide, reference compound]",displacement of the ATP probe from / binding to RIPK1 (in words),[2],not to displace the ATP probe
same,Kd,[2],> 30000 nM
same,displacement of the ATP probe from / binding to RIPK3 (in words),[8],not to displace the ATP probe
same,Kd,[8]; average of duplicates,> 30000 nM
same,displacement of the ATP probe from MLKL (in words),[3]; data not shown,not to displace the ATP probe
same,ΔTm at 10 µM,[4],0.67 °C
same,IC50,[5]; Homo sapiens,200 nM
same,ΔTm at 10 µM,[6],0.15 °C
CC(=O)Nc1ccc(N(C)c2ccnc(Nc3cccc(S(N)(=O)=O)c3)n2)cc1 [cpd 2],weaker potency to RIPK1 relative to MLKL,[2],at least 10 fold
same,Kd,[2],> 10000 nM
same,Kd,[3],780 nM
same,ΔTm at 10 µM,[4],2.93 °C
same,IC50,[5]; Homo sapiens,> 40000 nM
same,ΔTm at 10 µM,[6],0 °C
